Test results as given in patent publication US10611740B2, “Aryl dihydro-2H-benzo[b][1,4]oxazine sulfonamide and related compounds for use as agonists of RORγ and the treatment of disease” (Lycera Corporation, priority 2015, dated 2020).

Target: T1, RORγ-LBD (Homo sapiens, UniProt P51449)
T1 construct: made in house; host or cells: SF9 cells (baculovirus)
T1 sequence (P51449 269-508 limits assumed): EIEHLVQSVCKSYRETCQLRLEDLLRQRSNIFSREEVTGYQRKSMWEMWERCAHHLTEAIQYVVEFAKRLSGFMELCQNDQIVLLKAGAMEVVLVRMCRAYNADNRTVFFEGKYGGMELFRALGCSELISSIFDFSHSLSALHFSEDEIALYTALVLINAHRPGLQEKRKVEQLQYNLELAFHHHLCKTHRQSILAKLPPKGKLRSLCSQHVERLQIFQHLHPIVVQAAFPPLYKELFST
Assay: RORγ-Ligand Binding Domain (LBD) TR-FRET Assay;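 as to TR-FRET Assay Max Response: 665/615 nm ratio relative to signal without ursolic acid or compound set at 100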
Assay type: biochemical
Procedure: Assay procedures and results are described below.
HIS-tagged RORγ-LBD protein was expressed in SF9 cells using a baculovirus expression system. The lysate was diluted in assay buffer (50 mM Tris pH 7.0, 50 mM KCl, 1 mM EDTA, 0.1 mM DTT, 0.01% BSA) to obtain RORγ-LBD final concentration of ˜3 nM in a 384-well assay plate (need to titrate for each batch of protein).
A stock of biotinylated-LXXLL peptide from coactivator SRC1 (Biotin-[…]) was prepared in assay buffer and added to each well (200 nM final concentration). […] RORγ antagonist ursolic acid was also included at a final concentration of 2 μM. Compounds were diluted in DMSO and further diluted in assay buffer with a final DMSO concentration at 1%.

Row | SMILES | EC50 [nM] | TR-FRET Assay Max Response
1 | O=C(O)CC[C@H]1CN(S(=O)(=O)c2cccc(C(F)(F)F)c2)c2cc(-c3ccc(Cl)cc3)ccc2O1 [Compound 2B, (S)-3-(6-(4-chlorophenyl)-4-((3-(trifluoromethyl)phenyl)-sulfonyl)-3,4-dihydro-2H-benzo[b][1,4]oxazin-2-yl)propanoic acid] | < 500 | ** (The symbol “**” indicates a value in the range of greater than 90 to 150)
2 | O=C(O)CC[C@@H]1CN(S(=O)(=O)c2cccc(C(F)(F)F)c2)c2cc(-c3cc(F)ccc3F)ccc2O1 [Compound 2BP, (R)-3-(6-(2,5-difluorophenyl)-4-((3-(trifluoromethyl)phenyl)-sulfonyl)-3,4-dihydro-2H-benzo[b][1,4]oxazin-2-yl)propanoic acid] | < 500 | *** (The symbol “***” indicates a value in the range of greater than 150 to 200)
3 | O=C(O)CC[C@H]1CN(S(=O)(=O)c2cccc(C(F)(F)F)c2)c2cc(-c3ccc(F)cc3F)ccc2O1 [Compound 2D, (S)-3-(6-(2,4-difluorophenyl)-4-((3-(trifluoromethyl)phenyl)-sulfonyl)-3,4-dihydro-2H-benzo[b][1,4]oxazin-2-yl)propanoic acid] | < 500 | ** (The symbol “**” indicates a value in the range of greater than 90 to 150)
4 | O=C(O)CC[C@H]1CN(S(=O)(=O)c2cccc(C(F)(F)F)c2)c2cc(-c3ccc(F)c(F)c3)ccc2O1 [Compound 2F, (S)-3-(6-(3,4-difluorophenyl)-4-((3-(trifluoromethyl)phenyl)-sulfonyl)-3,4-dihydro-2H-benzo[b][1,4]oxazin-2-yl)propanoic acid] | < 500 | ** (The symbol “**” indicates a value in the range of greater than 90 to 150)
5 | O=C(O)CC[C@H]1CN(S(=O)(=O)c2cccc(C(F)(F)F)c2)c2cc(-c3cccc(-c4ccccc4)n3)ccc2O1 [Compound 4AI, (S)-3-(6-(6-phenylpyridin-2-yl)-4-((3-(trifluoromethyl)-phenyl)sulfonyl)-3,4-dihydro-2H-benzo[b][1,4]oxazin-2-yl)propanoic acid] | < 500 | ** (The symbol “**” indicates a value in the range of greater than 90 to 150)
6 | CN(C)c1cc(C(F)(F)F)cc(-c2ccc3c(c2)N(S(=O)(=O)c2cccc(C(F)(F)F)c2)C[C@H](CCC(=O)O)O3)n1 [Compound 4AT, (S)-3-(6-(6-(dimethylamino)-4-(trifluoromethyl)pyridin-2-yl)-4-((3-(trifluoromethyl)phenyl)-sulfonyl)-3,4-dihydro-2H-benzo[b][1,4]oxazin-2-yl)propanoic acid] | 500 to 5000 | *** (The symbol “***” indicates a value in the range of greater than 150 to 200)
7 | CN(C)c1nccc(-c2ccc3c(c2)N(S(=O)(=O)c2cccc(C(F)(F)F)c2)C[C@H](CCC(=O)O)O3)n1 [Compound 4AV, (S)-3-(6-(2-(dimethylamino)-pyrimidin-4-yl)-4-((3-(trifluoromethyl)phenyl)-sulfonyl)-3,4-dihydro-2H-benzo[b][1,4]oxazin-2-yl)propanoic acid] | 500 to 5000 | *** (The symbol “***” indicates a value in the range of greater than 150 to 200)
8 | O=C(O)CC[C@H]1CN(S(=O)(=O)c2cccc(C(F)(F)F)c2)c2cc(-c3ccnc(Cl)n3)ccc2O1 [Compound 4AX, (S)-3-(6-(2-chloropyrimidin-4-yl)-4-((3-(trifluoromethyl)-phenyl)sulfonyl)-3,4-dihydro-2H-benzo[b][1,4]oxazin-2-yl)propanoic acid] | 500 to 5000 | ** (The symbol “**” indicates a value in the range of greater than 90 to 150)
9 | O=C(O)CC[C@H]1CN(S(=O)(=O)c2cccc(C(F)(F)F)c2)c2cc(-c3cccc(C(F)(F)F)n3)c(Cl)cc2O1 [Compound 22F, (S)-3-(7-chloro-4-((3-(trifluoromethyl)phenyl)sulfonyl)-6-(6-(trifluoromethyl)pyridin-2-yl)-3,4-dihydro-2H-benzo[b][1,4]-oxazin-2-yl)propanoic acid] | > 10000 | –
10 | O=C(O)CC[C@H]1CN(S(=O)(=O)c2cccc(C(F)(F)F)c2)c2cc(-c3cc(F)cc(OC(F)F)c3)cc(F)c2O1 [Compound 22M, (S)-3-(6-(3-(difluoromethoxy)-5-fluorophenyl)-8-fluoro-4-((3-(trifluoromethyl)phenyl)sulfonyl)-3,4-dihydro-2H-benzo[b][1,4]-oxazin-2-yl)propanoic acid] | < 500 | *** (The symbol “***” indicates a value in the range of greater than 150 to 200)
11 | O=C(O)CC[C@H]1CN(S(=O)(=O)c2cccc(C(F)(F)F)c2)c2cc(-c3cc(F)cc(OC(F)F)c3)c(Cl)cc2O1 [Compound 22N, (S)-3-(7-chloro-6-(3-(difluoro-methoxy)-5-fluorophenyl)-4-((3-(trifluoromethyl)phenyl)sulfonyl)-3,4-dihydro-2H-benzo[b][1,4]-oxazin-2-yl)propanoic acid] | < 500 | –
12 | O=C(O)CNC(=O)CC[C@H]1CN(S(=O)(=O)c2cccc(C(F)(F)F)c2)c2cc(-c3cccc(F)c3F)ccc2O1 [Compound 23O, (S)-(3-(6-(2,3-difluorophenyl)-4-((3-(trifluoromethyl)-phenyl)sulfonyl)-3,4-dihydro-2H-benzo[b][1,4]oxazin-2-yl)propanoyl)glycine] | < 500 | **** (The symbol “****” indicates a value greater than 200)
13 | O=C(NCC[C@H]1CN(S(=O)(=O)c2cccc(C(F)(F)F)c2)c2cc(-c3cc(F)ccc3F)ccc2O1)NC[C@H](O)C(=O)O [Compound 23Z, (S)-3-(3-(2-((S)-6-(2,5-difluorophenyl)-4-((3-(trifluoro-methyl)phenyl)sulfonyl)-3,4-dihydro-2H-benzo[b][1,4]oxazin-2-yl)ethyl)ureido)-2-hydroxypropanoic acid] | < 500 | **** (The symbol “****” indicates a value greater than 200)
14 | Cc1coc(-c2ccc3c(c2)N(S(=O)(=O)c2cccc(C(F)(F)F)c2)C[C@H](CCC(=O)O)O3)n1 [Compound 25, (S)-3-(6-(4-methyloxazol-2-yl)-4-((3-(trifluoromethyl)phenyl)sulfonyl)-3,4-dihydro-2H-benzo[b][1,4]oxazin-2-yl)propanoic acid] | 500 to 5000 | ** (The symbol “**” indicates a value in the range of greater than 90 to 150)
15 | CC(C)(C(=O)NC[C@H]1CN(S(=O)(=O)c2cccc(C(F)(F)F)c2)c2cc(-c3cccc(F)c3Cl)ccc2O1)C(F)(F)F [Compound 30BJ, (S)-N-((6-(2-chloro-3-fluoro-phenyl)-4-((3-(trifluoromethyl)-phenyl)sulfonyl)-3,4-dihydro-2H-benzo[b][1,4]oxazin-2-yl)methyl)-3,3,3-trifluoro-2,2-dimethylpropanamide] | 500 to 5000 | *** (The symbol “***” indicates a value in the range of greater than 150 to 200)
16 | NS(=O)(=O)CCC(=O)NC[C@H]1CN(S(=O)(=O)c2cccc(C(F)(F)F)c2)c2cc(-c3cccc(F)c3Cl)ccc2O1 [Compound 30BK, (S)-N-((6-(2-chloro-3-fluoro-phenyl)-4-((3-(trifluoromethyl)-phenyl)sulfonyl)-3,4-dihydro-2H-benzo[b][1,4]oxazin-2-yl)methyl)-3-sulfamoylpropanamide] | < 500 | *** (The symbol “***” indicates a value in the range of greater than 150 to 200)
17 | N#CC1(C(=O)NC[C@H]2CN(S(=O)(=O)c3cccc(C(F)(F)F)c3)c3cc(-c4cccc(F)c4Cl)ccc3O2)CC1 [Compound 30BL, (S)-N-((6-(2-chloro-3-fluoro-phenyl)-4-((3-(trifluoromethyl)-phenyl)sulfonyl)-3,4-dihydro-2H-benzo[b][1,4]oxazin-2-yl)methyl)-1-cyanocyclo-propane-1-carboxamide] | < 500 | *** (The symbol “***” indicates a value in the range of greater than 150 to 200)
18 | O=C(NC[C@H]1CN(S(=O)(=O)c2cccc(C(F)(F)F)c2)c2cc(-c3cccc(F)c3Cl)ccc2O1)C1(F)CC1 [Compound 30BM, (S)-N-((6-(2-chloro-3-fluoro-phenyl)-4-((3-(trifluoromethyl)-phenyl)sulfonyl)-3,4-dihydro-2H-benzo[b][1,4]oxazin-2-yl)methyl)-1-fluorocyclo-propane-1-carboxamide] | < 500 | *** (The symbol “***” indicates a value in the range of greater than 150 to 200)
19 | CC(C)(C(=O)NC[C@H]1CN(S(=O)(=O)c2cccc(C(F)(F)F)c2)c2cc(-c3cc(F)cc(OC(F)F)c3)ccc2O1)C(F)(F)F [Compound 30CY, (S)-N-((6-(3-(difluoromethoxy)-5-fluorophenyl)-4-((3-(trifluoro-methyl)phenyl)sulfonyl)-3,4-dihydro-2H-benzo[b][1,4]-oxazin-2-yl)methyl)-3,3,3-trifluoro-2,2-dimethyl-propanamide] | < 500 | ** (The symbol “**” indicates a value in the range of greater than 90 to 150)
